A word on the IC50: it is the point on the concentration scale where inhibition reaches its midpoint.

Read-outs that look alike come from different tables or passages of the source.

In US10988477B2 (Merck Patent GmbH, priority 2018, dated 2021) one finds Ki and IC50 data, which are given here for 22 molecules.

One assay has as its target GCN2 kinase (Homo sapiens, UniProt Q9P2K8). Briefly: GCN2 enzyme inhibition assay (Transcreener ADP2 fluorescence polarization). To be noted: 280 μM ATP. It counts as biochemical. In a few lines:
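Human GCN2 (4 nM) preincubated 10 min with compound (0–8 μM) and 200 μM (RS)7 peptide in Tris-HCl pH 7.5, NaCl, MgCl2, DTT. Reaction started with 280 μM ATP, run 1 h at 25 °C. ADP detected by Transcreener fluorescence polarization. IC50 and Ki(app) fitted by tight-binding algorithm.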
Background: Fluorescence polarisation rises when a labelled molecule tumbles more slowly, as on binding a larger partner.

The target in assay [1] is intracellular GCN2 (phosphorylation of the GCN2 substrate eIF2α) (Homo sapiens, UniProt Q9P2K8). Briefly: GCN2 cellular inhibition assay (AlphaScreen SureFire P-eIF2α Ser51, borrelidin-treated U2OS cells). It counts as cell-based. As for the experimental part: Compounds can be screened for their ability to inhibit intracellular GCN2 using an AlphaScreen assay (Perkin Elmer) to detect phosphorylation of the GCN2 substrate eIF2α in borrelidin-treated cells. U2OS cells are plated at 5,000 cells per well in 384-well white polystyrene plates (Corning 3570) in McCoy's 5 A media (GIBCO 26600-023) supplemented with 10% foetal bovine serum (SAFC 12103C), Penicillin/Streptomycin solution diluted 1:100 (Sigma P0781), and 2 mM L-glutamine (Sigma G7513), and allowed to adhere overnight at 37° C. in 5% CO2. Compounds are then added to the cell media from a final concentration of 40 μM in 4-fold serial dilutions. Borrelidin (FluoroChem M01440) is immediately added to the wells to a final concentration of 10 μM and the cells are incubated for 1 h at 37° C. in 5% CO2. After 1 h of treatment with borrelidin, the media is removed, and the cells are lysed with lysis buffer (TGR BioSciences TGRLB) at ambient temperature.
An AlphaScreen SureFire P-eIF2α (Ser51) assay kit (Perkin Elmer TGREIF2S) was used to measure levels of eIF2α phosphorylated on Serine 51. Anti-phosphorylated eIF2α Ser51 antibody-linked acceptor beads (TGR BioScience 6760617) are added to the cell homogenate (diluted 1:250 into a mixture of activation (TGR BioScience TGRAB) and reaction buffer (TGR BioScience TGREIF2S) prepared immediately before use). The plate is then incubated for 2 h at ambient temperature in the dark. Anti-eIF2α antibody-linked donor beads (TGR BioScience 6760617) were then added (diluted 1:100 in dilution buffer (TGR BioScience TGRDB) prepared immediately before use). The plate is then incubated overnight at ambient temperature in the dark.
Plates are analyzed on an Alpha Technology-compatible PHERAstar FS plate reader (BMG Labtech Version 1.14) to quantify phosphorylated eIF2α Ser51 levels. The percentage inhibition of phosphorylated eIF2α is calculated by comparison to control wells stimulated with borrelidin alone.

The mark [2] stands for this setting: Enzyme activity for compounds of Formula IV, Ki(app), 25° C.
Setting [3] is: compounds of Formula IV, biomarker assay, phosphorylated eIF2α Ser51 in borrelidin-treated U2OS cells.
Setting [4] is: compounds of Formula V, 4 nM GCN2 kinase.
The mark [5] stands for this setting: compounds of Formula V, U2OS cells, 10 μM borrelidin, 1 h, read-out: GCN2 Biomarker (IC50).
The mark [6] stands for this setting: compounds of Formula II, 4 nM GCN2 kinase.
Setting [7] is: compounds of Formula II, biomarker assay, phosphorylated eIF2α Ser51 in borrelidin-treated U2OS cells.

intracellular GCN2 (phosphorylation of the GCN2 substrate eIF2α), sequence (Q9P2K8 whole entry): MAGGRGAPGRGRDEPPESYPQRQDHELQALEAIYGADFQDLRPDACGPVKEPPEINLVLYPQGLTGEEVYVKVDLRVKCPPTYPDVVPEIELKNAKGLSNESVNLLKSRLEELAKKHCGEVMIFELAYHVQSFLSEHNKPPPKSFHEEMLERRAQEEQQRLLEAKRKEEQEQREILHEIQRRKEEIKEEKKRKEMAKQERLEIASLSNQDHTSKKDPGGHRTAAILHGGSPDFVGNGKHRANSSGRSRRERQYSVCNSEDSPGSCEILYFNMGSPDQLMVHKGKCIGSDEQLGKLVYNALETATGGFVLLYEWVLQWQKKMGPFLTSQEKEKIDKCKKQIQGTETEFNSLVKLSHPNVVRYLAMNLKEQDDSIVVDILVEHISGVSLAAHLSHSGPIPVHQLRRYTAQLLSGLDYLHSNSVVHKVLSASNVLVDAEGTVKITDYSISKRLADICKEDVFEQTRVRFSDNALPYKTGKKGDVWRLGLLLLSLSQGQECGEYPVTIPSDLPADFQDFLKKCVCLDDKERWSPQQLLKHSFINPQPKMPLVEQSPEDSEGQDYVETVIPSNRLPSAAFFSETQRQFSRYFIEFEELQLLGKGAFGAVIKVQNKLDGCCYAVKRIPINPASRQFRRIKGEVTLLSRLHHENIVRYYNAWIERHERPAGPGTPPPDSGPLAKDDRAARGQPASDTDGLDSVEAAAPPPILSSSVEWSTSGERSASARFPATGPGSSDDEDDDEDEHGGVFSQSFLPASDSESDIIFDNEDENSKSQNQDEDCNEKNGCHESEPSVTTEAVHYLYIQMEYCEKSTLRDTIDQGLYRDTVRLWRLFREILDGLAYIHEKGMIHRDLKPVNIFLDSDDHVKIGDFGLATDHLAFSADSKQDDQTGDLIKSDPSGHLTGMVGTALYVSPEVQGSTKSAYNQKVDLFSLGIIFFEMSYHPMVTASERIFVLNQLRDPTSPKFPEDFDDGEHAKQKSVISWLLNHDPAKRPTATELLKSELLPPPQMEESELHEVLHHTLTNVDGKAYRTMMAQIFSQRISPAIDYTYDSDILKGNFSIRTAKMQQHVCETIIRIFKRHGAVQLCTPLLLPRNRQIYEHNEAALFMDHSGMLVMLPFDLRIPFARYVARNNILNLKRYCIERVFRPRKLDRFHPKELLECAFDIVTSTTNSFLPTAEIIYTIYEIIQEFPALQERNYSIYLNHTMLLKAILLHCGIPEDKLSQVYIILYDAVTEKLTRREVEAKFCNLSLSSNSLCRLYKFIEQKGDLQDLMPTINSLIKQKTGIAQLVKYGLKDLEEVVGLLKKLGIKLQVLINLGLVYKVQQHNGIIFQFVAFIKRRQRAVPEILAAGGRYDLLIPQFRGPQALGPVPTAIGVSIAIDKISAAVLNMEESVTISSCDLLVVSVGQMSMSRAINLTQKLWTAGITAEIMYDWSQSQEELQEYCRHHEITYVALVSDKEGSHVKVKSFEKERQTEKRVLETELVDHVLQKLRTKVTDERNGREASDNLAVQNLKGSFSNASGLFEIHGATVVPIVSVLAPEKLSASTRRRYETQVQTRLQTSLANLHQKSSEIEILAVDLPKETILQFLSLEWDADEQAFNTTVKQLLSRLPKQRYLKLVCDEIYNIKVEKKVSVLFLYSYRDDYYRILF
GCN2 kinase, sequence (Q9P2K8 whole entry): as above

With `C[C@@H]1CC[C@H](C(N)=O)CN1c1ccnc(-c2cnc3cnc(C(F)F)cn23)n1` (racemic) [IV-106, Cis-1-(2-(6-(Difluoromethyl)imidazo[1,2-a]pyrazin-3-yl)pyrimidin-4-yl)-6-methylpiperidine-3 carboxamide], at GCN2 kinase (setting [2]), the Ki fell in the range of 10 to 100 nM. Moreover, the IC50 in assay [1] (setting [3]) was 500 to 5000 nM.

In turn, `C[C@H]1[C@@H](C(=O)O)CCCN1c1ccnc(-c2cnc3cnc(C(F)F)cn23)n1` (racemic) [IV-110, Cis-1-(2-(6-(Difluoromethyl)imidazo[1,2-a]pyrazin-3-yl)pyrimidin-4-yl)-2-methylpiperidine-3-carboxylic acid] returned a Ki on GCN2 kinase (setting [2]) of 100 to 1000 nM. Further, the concentration for half-maximal inhibition (IC50) in assay [1] (setting [3]) was > 5000 nM.

In the case of `C[C@@H]1CN(c2ccnc(-c3cnc4cnc(Cl)cn34)n2)C[C@H](c2cn[nH]c2)N1` (racemic) [IV-206, Cis-6-Chloro-3-(4-(3-methyl-5-(H-pyrazol-4-yl)piperazin-1-yl)pyrimidin-2-yl)imidazo[1,2-a]pyrazine], the Ki at GCN2 kinase (setting [2]) lay in the range of 10 to 100 nM. Besides, the half-inhibitory concentration (IC50) in assay [1] (setting [3]) lay within 500 to 5000 nM.

On GCN2 kinase (setting [2]), `C[C@H]1[C@@H](c2cn[nH]c2)OCCN1c1ccnc(-c2cnc3cnc(C(F)(F)F)cn23)n1` (racemic) [IV-215, Cis-3-Methyl-2-(1H-pyrazol-4-yl)-4-(2-(6-(trifluoromethyl)imidazo[1,2-a]pyrazin-3-yl)pyrimidin-4-yl)morpholine] returned a Ki of 10 to 100 nM. Further, the half-inhibitory concentration (IC50) in assay [1] (setting [3]) was < 500 nM.

For `C[C@@H]1[C@H](c2cn[nH]c2)OCCN1c1ccnc(-c2cnc3cnc(C#N)cn23)n1` (racemic) [IV-280, Cis-3-(4-(3-Methyl-2-(1H-pyrazol-4-yl)morpholino)pyrimidin-2-yl)imidazo[1,2-a]pyrazine-6-carbonitrile], at GCN2 kinase (setting [2]), the Ki is < 10 nM. For the same molecule, the IC50 in assay [1] (setting [3]) was < 500 nM.

With `C[C@H]1[C@@H](c2cn[nH]c2)NCCN1c1ccnc(-c2cnc3cnc(Br)cn23)n1` (racemic) [IV-343, Cis-6-Bromo-3-(4-(2-methyl-3-(1H-pyrazol-4-yl)piperazin-1-yl)pyrimidin-2-yl)imidazo[1,2-a]pyrazine], the Ki at GCN2 kinase (setting [2]) was < 10 nM. Besides, in assay [1] (setting [3]), the IC50 was < 500 nM.

In the case of `C[C@@H]1CN(c2ccnc(-c3cnc4cnc(Br)cn34)n2)C[C@H](c2cn[nH]c2)N1` (racemic) [IV-344, Cis-6-Bromo-3-(4-(3-methyl-5-(1H-pyrazol-4-yl)piperazin-1-yl)pyrimidin-2-yl)imidazo[1,2-a]pyrazine], the Ki at GCN2 kinase (setting [2]) was 10 to 100 nM. This molecule yielded a concentration for half-maximal inhibition (IC50) in assay [1] (setting [3]) of 500 to 5000 nM.

Regarding `C[C@H]1CN(c2ccnc(-c3cnc4cnc(C(F)(F)F)cn34)n2)C[C@@H](c2c[nH]cn2)N1` (racemic) [IV-379, Cis-3-(4-(3-(1H-Imidazol-4-yl)-5-methylpiperazin-1-yl)pyrimidin-2-yl)-6-(trifluoromethyl)imidazo[1,2-a]pyrazine], at GCN2 kinase (setting [2]), the Ki is < 10 nM. In assay [1] (setting [3]), the IC50 lay in the range of 500 to 5000 nM.

`CS(C)(=O)=N[C@@H]1C[C@@H](c2cn[nH]c2)CN(c2ccnc(-c3cnc4cnc(C(F)(F)F)cn34)n2)C1` (racemic) [IV-394] showed a Ki on GCN2 kinase (setting [2]) of 100 to 1000 nM. Further, the half-inhibitory concentration (IC50) in assay [1] (setting [3]) was > 5000 nM.

Regarding `C[C@H]1[C@@H](c2cn[nH]c2)NCCN1c1ccnc(-c2cnc3cnc(C4CC4)cn23)n1` (racemic) [IV-411, Cis-6-Cyclopropyl-3-(4-(2-methyl-3-(1H-pyrazol-4-yl)piperazin-1-yl)pyrimidin-2-yl)imidazo[1,2-a]pyrazine], on GCN2 kinase (setting [2]), the Ki lay within 10 to 100 nM. In assay [1] (setting [3]), this molecule had an IC50 of 500 to 5000 nM.

In the case of `C[C@H]1[C@@H](c2cn[nH]c2)CCCN1c1ccnc(-c2cnc3cnc(Br)cn23)n1` (relative stereo) [IV-387, Cis-6-Bromo-3-(4-(2-methyl-3-(1H-pyrazol-4-yl)piperidin-1-yl)pyrimidin-2-yl)imidazo[1,2-a]pyrazine], the Ki on GCN2 kinase (setting [2]) was < 10 nM. The IC50 in assay [1] (setting [3]) is < 500 nM.

In turn, `CCN1CCN(c2ccnc(-c3cnc4cnc(Br)cn34)n2)[C@@H](c2cn[nH]c2)[C@H]1C` (relative stereo) [IV-391, Cis-6-Bromo-3-(4-(4-ethyl-3-methyl-2-(1H-pyrazol-4-yl)piperazin-1-yl)pyrimidin-2-yl)imidazo[1,2-a]pyrazine] gave a Ki on GCN2 kinase (setting [2]) of 100 to 1000 nM. Besides, the half-inhibitory concentration (IC50) in assay [1] (setting [3]) lay within 500 to 5000 nM.

`C[C@H]1[C@@H](c2cn[nH]c2)N(C)CCN1c1ccnc(-c2cnc3cnc(Br)cn23)n1` (relative stereo) [IV-392, Cis-6-Bromo-3-(4-(2,4-dimethyl-3-(1H-pyrazol-4-yl)piperazin-1-yl)pyrimidin-2-yl)imidazo[1,2-a]pyrazine]: the Ki on GCN2 kinase (setting [2]) is < 10 nM. Moreover, the IC50 in assay [1] (setting [3]) was < 500 nM.

Take `CC1CN(c2ccnc(-c3cnc4sc(C(F)(F)F)cn34)n2)C(C)C(c2cn[nH]c2)N1` (single isomer, unassigned) [Compound V-11, 5-[4-[2,5-Dimethyl-3-(1H-pyrazol-4-yl)piperazin-1-yl]pyrimidin-2-yl]-2-(trifluoromethyl)imidazo[2,1-b]thiazole]: the Ki at GCN2 kinase (setting [4]) is < 10 nM. In addition, the IC50 in assay [1] (setting [5]) is < 500 nM.

On GCN2 kinase (setting [4]), `CC1CN(c2ccnc(-c3cnc4sc(C(F)(F)F)cn34)n2)C(C)C(c2cn[nH]c2)N1` (single isomer, unassigned) [Compound V-12, 5-[4-[2,5-Dimethyl-3-(1H-pyrazol-4-yl)piperazin-1-yl]pyrimidin-2-yl]-2-(trifluoromethyl)imidazo[2,1-b]thiazole] yielded a Ki of 100 to 1000 nM. The IC50 in assay [1] (setting [5]) is 500 to 5000 nM.

Take `CS(=O)(=O)NCC1CN(c2cc(-c3cnc4ccc(C(F)F)nn34)ncn2)CCC1(F)F` (single isomer, unassigned) [II-1, N-((1-(6-(6-(Difluoromethyl)imidazo[1,2-b]pyridazin-3-yl)pyrimidin-4-yl)-4,4-difluoropiperidin-3-yl)methyl)methanesulfonamide]: the Ki on GCN2 kinase (setting [6]) is 10 to 1000 nM. The same molecule showed an IC50 in assay [1] (setting [7]) of 500 to 5000 nM.

For `CS(=O)(=O)NCC1CN(c2cc(-c3cnc4ccc(C(F)F)nn34)ncn2)CCC1(F)F` (single isomer, unassigned) [II-2, N-((1-(6-(6-(Difluoromethyl)imidazo[1,2-b]pyridazin-3-yl)pyrimidin-4-yl)-4,4-difluoropiperidin-3-yl)methyl)methanesulfonamide], on GCN2 kinase (setting [6]), the Ki is < 10 nM. In assay [1] (setting [7]), this molecule came in with an IC50 of 500 to 5000 nM.

For `CC1(O)CC(CNS(C)(=O)=O)CN(c2cc(-c3cnc4ccc(C(F)F)nn34)ncn2)C1` (single isomer, unassigned) [II-5, N-((1-(6-(6-(Difluoromethyl)imidazo[1,2-b]pyridazin-3-yl)pyrimidin-4-yl)-5-hydroxy-5-methylpiperidin-3-yl)methyl)methanesulfonamide], the Ki on GCN2 kinase (setting [6]) fell in the range of 10 to 1000 nM. Further, the half-inhibitory concentration (IC50) in assay [1] (setting [7]) was > 5000 nM.

`CC1(O)CC(CNS(C)(=O)=O)CN(c2cc(-c3cnc4ccc(C(F)F)nn34)ncn2)C1` (single isomer, unassigned) [II-6, N-((1-(6-(6-(Difluoromethyl)imidazo[1,2-b]pyridazin-3-yl)pyrimidin-4-yl)-5-hydroxy-5-methylpiperidin-3-yl)methyl)methanesulfonamide] yielded a Ki at GCN2 kinase (setting [6]) of 10 to 1000 nM. For the same molecule, the half-maximal inhibitory concentration (IC50) in assay [1] (setting [7]) fell in the range of 500 to 5000 nM.

`CS(=O)(=O)NC1CCC2(CCN(c3cc(-c4cnc5ccc(C(F)F)nn45)ncn3)C2)C1` (single isomer, unassigned) [II-95, N-(2-(6-(6-(Difluoromethyl)imidazo[1,2-b]pyridazin-3-yl)pyrimidin-4-yl)-2-azaspiro[4.4]nonan-7-yl)methanesulfonamide]: the Ki at GCN2 kinase (setting [6]) lay in the range of 10 to 1000 nM. In addition, in assay [1] (setting [7]), the IC50 was 500 to 5000 nM.

In turn, `CS(=O)(=O)NC1CCC2(CCN(c3cc(-c4cnc5ccc(C(F)F)nn45)ncn3)C2)C1` (single isomer, unassigned) [II-100, N-(2-(6-(6-(Difluoromethyl)imidazo[1,2-b]pyridazin-3-yl)pyrimidin-4-yl)-2-azaspiro[4.4]nonan-7-yl)methanesulfonamide] returned a Ki at GCN2 kinase (setting [6]) of 10 to 1000 nM. Also, the 50% inhibitory concentration (IC50) in assay [1] (setting [7]) lay within 500 to 5000 nM.

In the case of `FC(F)(F)c1ccc2ncc(-c3ccnc(N4CCOC(c5cn[nH]c5)C4)c3)n2n1` (single isomer, unassigned) [II-229, 2-(1H-Pyrazol-4-yl)-4-(4-(6-(trifluoromethyl)imidazo[1,2-b]pyridazin-3-yl)pyridin-2-yl)morpholine], at GCN2 kinase (setting [6]), the Ki was < 10 nM. Further, the IC50 in assay [1] (setting [7]) is < 500 nM.
